Laboratory results reported in the kinase profiling compilation of Christmann-Franck et al. (2016).

How the values were obtained:
Test in all cases: KINOMEscan competition binding
Conditions in all cases: compound 10.0 µM
TNIK (human) = TNIK (human) (UniProt Q9UKE5)
EPHA2 (human) = EPHA2 (human) (UniProt P29317)
CDK7 (human) = CDK7 (human) (UniProt P50613)
PRKAA1 (human) = PRKAA1 (human) (UniProt Q13131)
STK10 (human) = STK10 (human) (UniProt O94804)
[1] = system: EGFR (human), P00533 [746-750 del]
MAPK14 (human) = MAPK14 (human) (UniProt Q16539)
MAPK14 (human), sequence (Q16539 whole entry, looked up): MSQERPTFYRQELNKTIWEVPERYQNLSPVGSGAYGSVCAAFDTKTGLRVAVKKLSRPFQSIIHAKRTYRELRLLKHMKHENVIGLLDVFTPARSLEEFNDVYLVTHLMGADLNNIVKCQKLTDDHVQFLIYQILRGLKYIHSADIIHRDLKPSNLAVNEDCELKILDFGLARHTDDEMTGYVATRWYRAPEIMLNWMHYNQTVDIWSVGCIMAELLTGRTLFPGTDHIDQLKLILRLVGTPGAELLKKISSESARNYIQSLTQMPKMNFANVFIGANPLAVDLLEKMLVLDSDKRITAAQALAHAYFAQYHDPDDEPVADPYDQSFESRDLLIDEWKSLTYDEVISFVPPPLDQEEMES

MAPK12 (human) = MAPK12 (human) (UniProt P53778)
MAPK12 (human), sequence (P53778 whole entry, looked up): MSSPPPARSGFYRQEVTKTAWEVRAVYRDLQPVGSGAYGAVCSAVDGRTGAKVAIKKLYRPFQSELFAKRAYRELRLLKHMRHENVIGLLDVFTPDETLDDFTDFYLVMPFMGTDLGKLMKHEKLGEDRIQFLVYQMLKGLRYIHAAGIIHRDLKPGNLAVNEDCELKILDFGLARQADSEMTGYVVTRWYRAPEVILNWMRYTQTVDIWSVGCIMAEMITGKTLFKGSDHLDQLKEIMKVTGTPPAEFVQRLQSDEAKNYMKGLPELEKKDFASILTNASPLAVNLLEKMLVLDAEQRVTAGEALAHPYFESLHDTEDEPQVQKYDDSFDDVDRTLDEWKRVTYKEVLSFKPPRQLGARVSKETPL

CDK15 (human) = CDK15 (human) (UniProt Q96Q40)
TIE1 (human) = TIE1 (human) (UniProt P35590)
[2] = system: EGFR (human), P00533 [L858R]
FRK (human) = FRK (human) (UniProt P42685)
FRK (human), sequence (P42685 whole entry, looked up): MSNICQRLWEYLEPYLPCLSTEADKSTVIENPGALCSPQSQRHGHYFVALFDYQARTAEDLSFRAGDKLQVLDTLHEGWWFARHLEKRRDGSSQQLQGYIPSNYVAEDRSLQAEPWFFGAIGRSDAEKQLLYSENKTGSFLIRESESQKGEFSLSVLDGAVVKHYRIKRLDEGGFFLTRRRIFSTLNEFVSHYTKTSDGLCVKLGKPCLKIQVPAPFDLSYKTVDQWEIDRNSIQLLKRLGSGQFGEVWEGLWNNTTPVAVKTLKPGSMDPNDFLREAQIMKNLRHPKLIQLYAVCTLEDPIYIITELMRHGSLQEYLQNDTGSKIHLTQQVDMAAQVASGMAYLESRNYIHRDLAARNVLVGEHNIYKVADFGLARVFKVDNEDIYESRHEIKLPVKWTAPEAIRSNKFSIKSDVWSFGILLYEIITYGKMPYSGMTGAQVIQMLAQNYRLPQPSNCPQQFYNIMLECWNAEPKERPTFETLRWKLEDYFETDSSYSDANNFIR

FGR (human) = FGR (human) (UniProt P09769)
FGR (human), sequence (P09769 whole entry, looked up): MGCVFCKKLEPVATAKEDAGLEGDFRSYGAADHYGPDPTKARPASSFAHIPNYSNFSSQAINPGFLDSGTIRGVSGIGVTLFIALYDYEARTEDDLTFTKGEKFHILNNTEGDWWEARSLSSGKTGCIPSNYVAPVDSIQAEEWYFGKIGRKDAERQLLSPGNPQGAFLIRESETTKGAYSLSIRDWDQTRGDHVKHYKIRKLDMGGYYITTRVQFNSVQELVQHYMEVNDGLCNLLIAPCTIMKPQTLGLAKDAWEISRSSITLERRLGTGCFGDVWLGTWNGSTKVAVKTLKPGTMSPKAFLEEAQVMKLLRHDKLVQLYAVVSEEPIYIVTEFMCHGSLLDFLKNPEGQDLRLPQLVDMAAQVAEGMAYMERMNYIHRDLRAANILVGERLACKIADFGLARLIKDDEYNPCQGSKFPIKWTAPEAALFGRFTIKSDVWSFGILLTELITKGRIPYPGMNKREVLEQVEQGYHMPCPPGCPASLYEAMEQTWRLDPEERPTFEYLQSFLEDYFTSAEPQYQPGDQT

[3] = system: ABL1 (human), P00519 [F317I]
TEK (human) = TEK (human) (UniProt Q02763)
[4] = system: EGFR (human), P00533 [G719C]
PTK6 (human) = PTK6 (human) (UniProt Q13882)
FLT1 (human) = FLT1 (human) (UniProt P17948)
IKBKB (human) = IKBKB (human) (UniProt O14920)
IKBKB (human), sequence (O14920 whole entry, looked up): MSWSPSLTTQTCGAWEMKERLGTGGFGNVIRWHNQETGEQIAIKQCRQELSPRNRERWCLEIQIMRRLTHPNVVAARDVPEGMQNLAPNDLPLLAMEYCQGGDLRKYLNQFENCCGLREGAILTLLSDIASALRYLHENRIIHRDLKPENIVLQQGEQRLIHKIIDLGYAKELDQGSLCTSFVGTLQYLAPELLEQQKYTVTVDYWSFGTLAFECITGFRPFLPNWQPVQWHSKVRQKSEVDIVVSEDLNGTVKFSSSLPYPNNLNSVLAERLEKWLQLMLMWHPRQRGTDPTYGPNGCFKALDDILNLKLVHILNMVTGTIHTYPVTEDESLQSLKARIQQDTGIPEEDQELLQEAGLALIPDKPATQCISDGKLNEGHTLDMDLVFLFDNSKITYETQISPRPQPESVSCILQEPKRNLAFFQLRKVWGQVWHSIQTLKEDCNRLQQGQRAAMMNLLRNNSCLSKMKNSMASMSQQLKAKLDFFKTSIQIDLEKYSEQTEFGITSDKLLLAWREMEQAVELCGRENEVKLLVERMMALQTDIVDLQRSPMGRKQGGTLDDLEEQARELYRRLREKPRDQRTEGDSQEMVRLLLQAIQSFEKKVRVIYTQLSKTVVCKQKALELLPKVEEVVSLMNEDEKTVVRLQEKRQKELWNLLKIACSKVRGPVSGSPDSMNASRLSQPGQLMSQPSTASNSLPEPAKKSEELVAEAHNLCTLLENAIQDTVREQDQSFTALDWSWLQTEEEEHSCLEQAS

CDK18 (human) = CDK18 (human) (UniProt Q07002)
TAOK1 (human) = TAOK1 (human) (UniProt Q7L7X3)
[5] = system: ABL1 (human), P00519 [H396P]
SYK (human) = SYK (human) (UniProt P43405)
MAPK8 (human) = MAPK8 (human) (UniProt P45983)
CDK11B (human) = CDK11B (human) (UniProt P21127)
FGFR4 (human) = FGFR4 (human) (UniProt P22455)
[6] = system: RET (human), P07949 [M918T]
RAF1 (human) = RAF1 (human) (UniProt P04049)
EPHB2 (human) = EPHB2 (human) (UniProt P29323)
ALK (human) = ALK (human) (UniProt Q9UM73)
ALK (human), sequence (Q9UM73 whole entry, looked up): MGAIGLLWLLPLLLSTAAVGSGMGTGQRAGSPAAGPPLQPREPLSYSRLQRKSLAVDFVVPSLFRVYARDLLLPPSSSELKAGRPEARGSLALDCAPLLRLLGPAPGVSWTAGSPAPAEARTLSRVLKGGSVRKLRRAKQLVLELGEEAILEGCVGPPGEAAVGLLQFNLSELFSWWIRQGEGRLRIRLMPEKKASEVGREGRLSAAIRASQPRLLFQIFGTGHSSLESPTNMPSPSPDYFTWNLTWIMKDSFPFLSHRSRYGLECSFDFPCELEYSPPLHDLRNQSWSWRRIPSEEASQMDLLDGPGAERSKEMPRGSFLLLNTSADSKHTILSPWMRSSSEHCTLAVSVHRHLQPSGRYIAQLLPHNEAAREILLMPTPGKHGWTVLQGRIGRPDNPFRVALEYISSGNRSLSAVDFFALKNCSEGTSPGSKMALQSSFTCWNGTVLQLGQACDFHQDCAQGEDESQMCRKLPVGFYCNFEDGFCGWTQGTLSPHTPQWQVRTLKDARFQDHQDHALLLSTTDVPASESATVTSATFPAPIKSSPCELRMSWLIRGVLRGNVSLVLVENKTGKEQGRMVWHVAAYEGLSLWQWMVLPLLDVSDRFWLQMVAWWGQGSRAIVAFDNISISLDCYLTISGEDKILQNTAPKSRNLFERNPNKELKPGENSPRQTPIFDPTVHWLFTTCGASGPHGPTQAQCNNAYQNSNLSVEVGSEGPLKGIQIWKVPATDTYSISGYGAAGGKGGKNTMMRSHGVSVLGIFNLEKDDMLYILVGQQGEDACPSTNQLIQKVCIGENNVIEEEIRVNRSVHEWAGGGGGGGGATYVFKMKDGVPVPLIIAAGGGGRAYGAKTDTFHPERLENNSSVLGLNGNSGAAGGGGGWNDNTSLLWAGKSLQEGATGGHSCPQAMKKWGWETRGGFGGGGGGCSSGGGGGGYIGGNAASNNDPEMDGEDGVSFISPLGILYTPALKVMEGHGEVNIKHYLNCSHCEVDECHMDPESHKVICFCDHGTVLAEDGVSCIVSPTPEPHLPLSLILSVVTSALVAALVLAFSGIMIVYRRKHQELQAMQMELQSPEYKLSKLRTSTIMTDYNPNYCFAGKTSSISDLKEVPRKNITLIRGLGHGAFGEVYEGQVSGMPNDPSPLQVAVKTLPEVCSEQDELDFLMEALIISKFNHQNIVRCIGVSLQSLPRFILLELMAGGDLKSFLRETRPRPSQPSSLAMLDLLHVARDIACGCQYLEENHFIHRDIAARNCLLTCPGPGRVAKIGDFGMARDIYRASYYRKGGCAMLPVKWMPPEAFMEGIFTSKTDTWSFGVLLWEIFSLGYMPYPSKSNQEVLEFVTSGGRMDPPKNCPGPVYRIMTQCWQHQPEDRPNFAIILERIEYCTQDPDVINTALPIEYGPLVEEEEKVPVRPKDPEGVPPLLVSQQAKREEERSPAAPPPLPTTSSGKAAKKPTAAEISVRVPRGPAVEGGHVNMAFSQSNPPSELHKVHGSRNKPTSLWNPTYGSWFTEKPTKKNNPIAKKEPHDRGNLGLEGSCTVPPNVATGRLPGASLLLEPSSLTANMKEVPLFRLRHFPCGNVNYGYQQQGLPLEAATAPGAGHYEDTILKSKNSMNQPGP

RIPK1 (human) = RIPK1 (human) (UniProt Q13546)
SLK (human) = SLK (human) (UniProt Q9H2G2)
PRKACB (human) = PRKACB (human) (UniProt P22694)
TXK (human) = TXK (human) (UniProt P42681)
TXK (human), sequence (P42681 whole entry, looked up): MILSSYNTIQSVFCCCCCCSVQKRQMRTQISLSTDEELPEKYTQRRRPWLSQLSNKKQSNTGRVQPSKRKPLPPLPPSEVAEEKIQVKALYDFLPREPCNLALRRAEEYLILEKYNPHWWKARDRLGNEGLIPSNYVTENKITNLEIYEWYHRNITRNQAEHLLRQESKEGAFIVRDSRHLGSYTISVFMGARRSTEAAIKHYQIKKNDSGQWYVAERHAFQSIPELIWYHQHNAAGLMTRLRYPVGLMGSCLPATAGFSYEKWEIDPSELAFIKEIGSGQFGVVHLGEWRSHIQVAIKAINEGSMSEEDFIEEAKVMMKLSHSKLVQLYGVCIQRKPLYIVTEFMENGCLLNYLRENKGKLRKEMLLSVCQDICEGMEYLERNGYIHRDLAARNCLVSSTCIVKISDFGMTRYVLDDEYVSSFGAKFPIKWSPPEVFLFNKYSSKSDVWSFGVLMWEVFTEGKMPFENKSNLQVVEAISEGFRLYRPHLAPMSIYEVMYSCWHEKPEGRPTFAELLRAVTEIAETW

NTRK3 (human) = NTRK3 (human) (UniProt Q16288)
LTK (human) = LTK (human) (UniProt P29376)
FES (human) = FES (human) (UniProt P07332)
ERBB4 (human) = ERBB4 (human) (UniProt Q15303)
MAPK10 (human) = MAPK10 (human) (UniProt P53779)
CSK (human) = CSK (human) (UniProt P41240)
[7] = system: ABL1 (human), P00519 [E255K]

CDK7 (human), sequence (P50613 whole entry, looked up): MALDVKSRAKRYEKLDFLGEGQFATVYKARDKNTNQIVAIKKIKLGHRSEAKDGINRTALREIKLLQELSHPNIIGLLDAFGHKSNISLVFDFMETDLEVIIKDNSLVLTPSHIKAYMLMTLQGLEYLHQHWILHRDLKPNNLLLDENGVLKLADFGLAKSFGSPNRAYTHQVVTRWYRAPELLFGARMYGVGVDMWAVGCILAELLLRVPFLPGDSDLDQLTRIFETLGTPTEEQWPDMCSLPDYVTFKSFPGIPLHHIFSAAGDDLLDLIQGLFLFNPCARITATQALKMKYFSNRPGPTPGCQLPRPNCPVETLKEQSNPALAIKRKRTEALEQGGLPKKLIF

**Q.** `CCN1CCN(Cc2ccc(NC(=O)c3ccc(C)c(Oc4ccnc5[nH]ccc45)c3)cc2C(F)(F)F)CC1` was tested. Which kinase still bound, per cent of control (TNIK (human)) did it give?
**A.** 8.2%

**Q.** What about the kinase still bound, per cent of control (EPHA2 (human)) of the same compound?
**A.** 3.1%

**Q.** And the residual activity (CDK7 (human))?
**A.** 2.4%

**Q.** And the kinase still bound, per cent of control (PRKAA1 (human))?
**A.** 33%

**Q.** What about the kinase still bound, per cent of control (STK10 (human)) of the same compound?
**A.** 0%

**Q.** And the kinase still bound, per cent of control [1]?
**A.** 8.4%

**Q.** And the kinase still bound, per cent of control (MAPK14 (human))?
**A.** 0%

**Q.** And the kinase still bound, per cent of control (MAPK12 (human))?
**A.** 0%

**Q.** What about the residual activity (CDK15 (human)) of the same compound?
**A.** 6%

**Q.** What about the kinase still bound, per cent of control (TIE1 (human)) of the same compound?
**A.** 0.95%

**Q.** What about the kinase still bound, per cent of control [2] of the same compound?
**A.** 14%

**Q.** And the kinase still bound, per cent of control (FRK (human))?
**A.** 0.7%

**Q.** And the kinase still bound, per cent of control (FGR (human))?
**A.** 1.2%

**Q.** What about the kinase still bound, per cent of control [3] of the same compound?
**A.** 0.05%

**Q.** What about the kinase still bound, per cent of control (TEK (human)) of the same compound?
**A.** 0%

**Q.** And the kinase still bound, per cent of control [4]?
**A.** 12%

**Q.** What about the kinase still bound, per cent of control (PTK6 (human)) of the same compound?
**A.** 28%

**Q.** And the kinase still bound, per cent of control (FLT1 (human))?
**A.** 1.6%

**Q.** And the kinase still bound, per cent of control (IKBKB (human))?
**A.** 24%

**Q.** What about the residual activity (CDK18 (human)) of the same compound?
**A.** 1.8%

**Q.** And the kinase still bound, per cent of control (TAOK1 (human))?
**A.** 3%

**Q.** What about the kinase still bound, per cent of control [5] of the same compound?
**A.** 0.7%

**Q.** What about the kinase still bound, per cent of control (SYK (human)) of the same compound?
**A.** 6.2%

**Q.** What about the kinase still bound, per cent of control (MAPK8 (human)) of the same compound?
**A.** 0%

**Q.** What about the residual activity (CDK11B (human)) of the same compound?
**A.** 0.35%

**Q.** What about the kinase still bound, per cent of control (FGFR4 (human)) of the same compound?
**A.** 0.45%

**Q.** And the kinase still bound, per cent of control [6]?
**A.** 0%

**Q.** What about the kinase still bound, per cent of control (RAF1 (human)) of the same compound?
**A.** 7%

**Q.** And the kinase still bound, per cent of control (EPHB2 (human))?
**A.** 11%

**Q.** What about the kinase still bound, per cent of control (ALK (human)) of the same compound?
**A.** 0.55%

**Q.** And the kinase still bound, per cent of control (RIPK1 (human))?
**A.** 0%

**Q.** What about the kinase still bound, per cent of control (SLK (human)) of the same compound?
**A.** 2%

**Q.** And the residual activity (PRKACB (human))?
**A.** 14%

**Q.** And the kinase still bound, per cent of control (TXK (human))?
**A.** 12%

**Q.** And the kinase still bound, per cent of control (NTRK3 (human))?
**A.** 3.8%

**Q.** And the kinase still bound, per cent of control (LTK (human))?
**A.** 1.2%

**Q.** And the kinase still bound, per cent of control (FES (human))?
**A.** 2.2%

**Q.** And the kinase still bound, per cent of control (ERBB4 (human))?
**A.** 28%

**Q.** What about the kinase still bound, per cent of control (MAPK10 (human)) of the same compound?
**A.** 12%

**Q.** And the kinase still bound, per cent of control (CSK (human))?
**A.** 0.45%

**Q.** And the kinase still bound, per cent of control [7]?
**A.** 1.2%
